This passage reports Ki results from BindingDB's records for PubMed 7996470 (University of Michigan, 1994).

Molecules are shown by their SMILES.

In experiment [1] the target is T1, Alpha-2C adrenergic receptor (Homo sapiens, UniProt P18825).
T1 sequence (P18825 whole entry): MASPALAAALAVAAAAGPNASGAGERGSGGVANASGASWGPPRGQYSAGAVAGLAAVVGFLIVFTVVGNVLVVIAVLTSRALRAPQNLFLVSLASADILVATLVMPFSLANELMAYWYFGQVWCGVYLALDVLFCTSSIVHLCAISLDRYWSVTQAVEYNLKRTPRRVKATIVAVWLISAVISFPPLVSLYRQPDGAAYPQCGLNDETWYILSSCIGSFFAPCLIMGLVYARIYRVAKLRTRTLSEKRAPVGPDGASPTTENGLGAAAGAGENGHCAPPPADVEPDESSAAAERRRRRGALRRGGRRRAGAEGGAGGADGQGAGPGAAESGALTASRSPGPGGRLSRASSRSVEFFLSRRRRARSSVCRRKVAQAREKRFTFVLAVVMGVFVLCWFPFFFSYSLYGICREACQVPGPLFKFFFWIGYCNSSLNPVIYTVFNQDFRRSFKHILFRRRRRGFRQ

Experiment [2] has as its target T2, Alpha-2A adrenergic receptor (Homo sapiens, UniProt P08913).
T2 sequence (P08913 whole entry): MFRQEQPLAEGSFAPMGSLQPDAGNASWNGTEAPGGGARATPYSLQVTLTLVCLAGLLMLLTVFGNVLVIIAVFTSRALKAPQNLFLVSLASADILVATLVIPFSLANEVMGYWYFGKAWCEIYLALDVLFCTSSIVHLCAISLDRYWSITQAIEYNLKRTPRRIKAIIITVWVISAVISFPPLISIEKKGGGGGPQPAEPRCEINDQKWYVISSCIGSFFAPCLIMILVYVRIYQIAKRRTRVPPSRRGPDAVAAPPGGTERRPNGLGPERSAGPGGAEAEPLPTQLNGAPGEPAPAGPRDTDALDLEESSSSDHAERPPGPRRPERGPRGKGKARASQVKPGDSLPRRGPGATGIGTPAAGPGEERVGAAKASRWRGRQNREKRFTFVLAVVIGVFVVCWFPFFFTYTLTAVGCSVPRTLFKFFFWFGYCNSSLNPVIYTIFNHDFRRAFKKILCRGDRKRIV

`COc1cc(N)c(Cl)cc1C(=O)NC1CC2CCC(C1)N2C` (centres undefined) [4-amino-5-chloro-2-methoxy-N-(8-methyl-8-azabicyclo[3.2.1]octan-3-yl)benzamide] showed a Ki in experiment [1] of 150 nM. For `O=C1NCN(c2ccccc2)C12CCN(CC1COc3ccccc3O1)CC2` (centres undefined) [8-(2,3-Dihydro-benzo[1,4]dioxin-2-ylmethyl)-1-phenyl-1,3,8-triaza-spiro[4.5]decan-4-one], the Ki in experiment [1] stood at 1.04 nM; in experiment [2], 54.3 nM. Regarding `CC1c2ccccc2CN1CC1=NCCN1` (centres undefined) [NSC_121850], the Ki in experiment [2] is 5.68 nM. As to `COc1ccccc1N1CCN(CCC2C(=O)c3ccccc3C(C)(C)C2=O)CC1` (centres undefined) [NSC_122211], the Ki in experiment [1] was found to be 31.8 nM. `COc1cccc(OC)c1OCCNCC1Oc2ccccc2OC1c1ccccc1` (centres undefined) [NSC_185453]: the Ki came out at 3.18 nM in experiment [1] and 14.6 nM in experiment [2]. The matching figures for `COC1(C2=NCCN2)COc2ccccc2O1` (centres undefined) [RX821002]: 1.78 nM and 0.62 nM.
